Measurements taken from US10239849B2 (Merck Sharp & Dohme Corp., priority 2015, dated 2019).

What was measured:
[1] = molecular target: T1, glutathione-S-transferase (GST) tagged LXRalpha LBD (ligand binding domain) (Homo sapiens, UniProt Q13133); test: LanthaScreen TR-FRET Liver X Receptor Coactivator Assay, LXR alpha-LBD; format: biochemical; conditions: for Emax: efficacy in relation to reference dual agonist T1317, read-out: LXR alpha activity at max dose (%) (Emax); for EC50 / LXR alpha IP (nM): potency (Inflection Point) of co-activator recruitment, TR-FRET; for EC50: read-out: LXR alpha IP
T1 construct: purchased Invitrogen pv4655
T1 sequence (Q13133 209-447 limits assumed): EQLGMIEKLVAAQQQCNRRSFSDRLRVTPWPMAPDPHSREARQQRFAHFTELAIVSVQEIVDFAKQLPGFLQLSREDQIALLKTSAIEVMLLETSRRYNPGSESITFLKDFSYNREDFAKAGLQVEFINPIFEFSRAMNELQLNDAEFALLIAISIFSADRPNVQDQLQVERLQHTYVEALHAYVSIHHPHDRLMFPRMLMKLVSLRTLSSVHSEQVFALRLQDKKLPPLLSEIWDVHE
Outline: (§1)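 Compound + LBD (alpha or beta); add fluorescein coactivator peptide/Tb anti-GST Ab mix; incubate RT; read TR-FRET.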

[2] = molecular target: T2, glutathione-S-transferase (GST) tagged LXRbeta LBD (ligand binding domain) (Homo sapiens, UniProt P55055); test: LanthaScreen TR-FRET Liver X Receptor Coactivator Assay, LXR beta-LBD; format: biochemical; conditions: for Emax: efficacy in relation to reference dual agonist T1317, read-out: LXR beta activity at max dose (%) (Emax); for EC50: potency (Inflection Point) of co-activator recruitment, TR-FRET, read-out: LXR beta IP
T2 construct: purchased Invitrogen pv4658.pps
T2 sequence (P55055 222-460 limits assumed): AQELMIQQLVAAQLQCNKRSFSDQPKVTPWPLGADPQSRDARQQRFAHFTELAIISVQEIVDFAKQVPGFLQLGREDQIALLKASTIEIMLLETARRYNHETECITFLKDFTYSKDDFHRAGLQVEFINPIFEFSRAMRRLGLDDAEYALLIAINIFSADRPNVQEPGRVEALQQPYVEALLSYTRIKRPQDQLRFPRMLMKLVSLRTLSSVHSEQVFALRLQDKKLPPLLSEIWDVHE
Outline: as §1

Emax [1]	EC50 [1]	Emax [2]	EC50 [2]	LXR alpha IP (nM) [1]	SMILES
42%	6870 nM	70%	261 nM	–	CN(CCCO)C(=O)c1ccc(-c2cnc(N3CCN(C(=O)OC(C)(C)C)CC3)c(C#N)c2)cc1Cl [Example 5-15, tert-butyl 4-(5-{3-chloro-4-[(3-hydroxypropyl) (methyl)carbamoyl]phenyl}-3-cyanopyridin-2-yl)piperazine-1-carboxylate]
76%	33700 nM	82%	176 nM	–	CNC(=O)c1ccc(-c2cnc(N3CCN(C(=O)OC(C)(C)C)CC3)c(C#N)c2)cc1Cl [Example 5-3, tert-butyl 4-{5-[3-chloro-4-(methylcarbamoyl)phenyl]-3-cyanopyridin-2-yl}piperazine-1-carboxylate]
122%	2820 nM	86%	87 nM	–	Cc1ccccc1COC(=O)N1CCN(c2ncc(-c3ccc(C(=O)N(C)C)c(Cl)c3)cc2C#N)CC1 [Example 3-4, 2-methylbenzyl 4-{5-[3-chloro-4-(dimethylcarbamoyl)phenyl]-3-cyanopyridin-2-yl}piperazine-1-carboxylate]
78%	538 nM	120%	18 nM	–	CN(C)C(=O)c1ccc(-c2cnc(N3CCN(C(=O)OC(C)(C)C)CC3Cc3ccccc3)c(C#N)c2)cc1Cl (stereo not drawn) [Example 8-13, tert-butyl 3-benzyl-4-{5-[3-chloro-4-(dimethylcarbamoyl)phenyl]-3-cyanopyridin-2-yl}piperazine-1-carboxylate]
12%	7290 nM	68%	307 nM	–	CN(C)C(=O)c1ccc(-c2cnc(N3CCN(C(=O)[C@@](O)(c4ccccc4)C(F)(F)F)CC3)c(C#N)c2)cc1Cl [Example 2-31, 2-chloro-4-(5-cyano-6-{4-[(2S)-3,3,3-trifluoro-2-hydroxy-2-phenylpropanoyl]piperazin-1-yl}pyridin-3-yl)-N,N-dimethylbenzamide]
38%	3440 nM	49%	161 nM	–	C=Cc1cc(-c2ccc(C(=O)N(C)C)c(Cl)c2)cnc1N1CCN(C(=O)OC(C)(C)C)CC1 [Example 9-2, tert-butyl 4-{5-[3-chloro-4-(dimethylcarbamoyl)phenyl]-3-ethenylpyridin-2-yl}piperazine-1-carboxylate]
20%	–	83%	881 nM	No IP	CN(C)C(=O)c1ccc(-c2ccc(N3CCN(C(=O)c4c(F)cccc4C(F)(F)F)CC3)cc2)cc1Cl [Example 4-12, 3-chloro-4′-(4-{[2-fluoro-6-(trifluoromethyl)phenyl]carbonyl}piperazin-1-yl)-N,N-dimethylbiphenyl-4-carboxamide]
44%	6900 nM	62%	262 nM	–	CC(C)(C)OC(=O)N1CCN(c2ncc(-c3ccc(C(=O)N4CC[C@H](O)C4)c(Cl)c3)cc2C#N)CC1 [Example 5-13, tert-butyl 4-[5-(3-chloro-4-{[(3S)-3-hydroxypyrrolidin-1-yl]carbonyl}phenyl)-3-cyanopyridin-2-yl]piperazine-1-carboxylate]
30%	2040 nM	88%	32 nM	–	CC(C)C(=O)C(=O)N1CCN(c2ncc(-c3cc(Cl)c(C(=O)N(C)C)c(Cl)c3)cc2C#N)CC1 [Example 7-2, 2,6-dichloro-4-{5-cyano-6-[4-(3-methyl-2-oxobutanoyl)piperazin-1-yl]pyridin-3-yl}1-N,N-dimethylbenzamide]
23%	–	77%	1350 nM	No IP	Cc1noc(C)c1CC(=O)N1CCN(c2ncc(-c3ccc(C(=O)N(C)C)c(Cl)c3)cc2C#N)CC1 [Example 2-14, 2-chloro-4-(5-cyano-6-{4-[(3,5-dimethylisoxazol-4-yl)acetyl]piperazin-1-yl}pyridin-3-yl)-N,N-dimethylbenzamide]
17%	–	47%	415 nM	No IP	CC(C)(C)OC(=O)N1CCN(c2ncc(-c3ccc(C(=O)N4CCC(O)CC4)c(Cl)c3)cc2C#N)CC1 [Example 5-17, tert-butyl 4-(5-{3-chloro-4-[(4-hydroxypiperidin-1-yl)carbonyl]phenyl}-3-cyanopyridin-2-yl)piperazine-1-carboxylate]
18%	292 nM	69%	13 nM	–	CN(C)C(=O)c1ccc(-c2cnc(N3CCN(C(=O)C(O)(c4ccccc4Cl)C(F)(F)F)CC3)c(C#N)c2)cc1Cl (stereo not drawn) [Example 2-38, 2-chloro-4-(6-{4-[2-(2-chlorophenyl)-3,3,3-trifluoro-2-hydroxypropanoyl]piperazin-1-yl}-5-cyanopyridin-3-yl)-N,N-dimethylbenzamide]
43%	16400 nM	99%	15 nM	–	CN(C)C(=O)c1ccc(-c2cnc(N3CCN(C(=O)C(C)(C)c4ccccc4)CC3)c(C#N)c2)cc1Cl [Example 2-18, 2-chloro-4-{5-cyano-6-[4-(2-methyl-2-phenylpropanoyl)piperazin-1-yl]pyridin-3-yl}-N,N-dimethylbenzamide]
26%	4830 nM	74%	57 nM	–	CN(C)C(=O)c1ccc(-c2cnc(N3CCN(C(=O)OCc4ccccc4)CC3)c(C#N)c2)cc1Cl [Example 3-14, benzyl 4-{5-[3-chloro-4-(dimethylcarbamoyl)phenyl]-3-cyanopyridin-2-yl}piperazine-1-carboxylate]
51%	3410 nM	108%	8 nM	–	CN(C)C(=O)c1ccc(-c2cnc(N3CCN(S(=O)(=O)c4ccccc4Cl)CC3)c(C#N)c2)cc1Cl [Example 1-11, 2-chloro-4-(6-{4-[(2-chlorophenyl)sulfonyl]piperazin-1-yl}-5-cyanopyridin-3-yl)-N,N-dimethylbenzamide]
36%	7890 nM	56%	741 nM	–	CC(O)CN(CC(C)O)C(=O)c1ccc(-c2cnc(N3CCN(C(=O)OC(C)(C)C)CC3)c(C#N)c2)cc1Cl (stereo not drawn) [Example 5-25, tert-butyl 4-(5-{4-[bis(2-hydroxypropyl)carbamoyl]-3-chlorophenyl}-3-cyanopyridin-2-yl)piperazine-1-carboxylate]
42%	19800 nM	62%	217 nM	–	CN(C)C(=O)c1ccc(-c2cnc(N3CCN(C(=O)OCc4cncs4)CC3)c(C#N)c2)cc1Cl [Example 3-3, 1,3-thiazol-5-ylmethyl 4-{5-[3-chloro-4-(dimethylcarbamoyl)phenyl]-3-cyanopyridin-2-yl}piperazine-1-carboxylate]

SMILES	Emax [1]	EC50 [1]	Emax [2]	EC50 [2]	LXR alpha IP (nM) [1]
CN(C)C(=O)c1ccc(-c2ccc(N3CC4CCC(C3)N4S(=O)(=O)c3c(Cl)cccc3Cl)c(Cl)c2)cc1Cl [Example 8-16, 3,3′-dichloro-4′-{8-[(2,6-dichlorophenyl)sulfonyl]-3,8-diazabicyclo[3.2.1]oct-3-yl}-N,N-dimethylbiphenyl-4-carboxamide]	79%	569 nM	82%	37 nM	–
